Experimental data published in the NIST ThermoML archive (doi:10.1016/j.jct.2019.01.012).
Numbers after ± are expanded uncertainties.

Test: molar enthalpy of vaporization or sublimation
Settings: 298.15 K; Liquid; Static calorimetry

O=C1C=CCC1 [2-cyclopenten-1-one]
molar enthalpy: 52.4 ± 1.5 kJ/mol

CC1=CC(=O)CC1 [3-methyl-2-cyclopenten-1-one]
molar enthalpy: 52.4 ± 1.4 kJ/mol
